Data from patent publication US20240368133A1, “Compounds for the Treatment of Pain, in Particular, Neuropathic Pain, and/or Other Diseases or Disorders that are Associated with AT2R and/or AT2R Mediated Signaling” (Confo Therapeutics N.V., priority 2021, published 2024).

Tests used:
[1] = target: human AT2R fused to Cb23 (Homo sapiens, UniProt P50052); experiment: Radioligand binding assay, displacement of 125I-[Sar1, Ile8]-Angiotensin II, hAT2R Cb23; conditions: displacement of 125I-[Sar1, Ile8]-Angiotensin II, human AT2R fused to Cb23, HEK-293 cell membrane preparations; read-out: Binding affinity on hAT2R_Cb23 IC50
human AT2R fused to Cb23, sequence (P50052 whole entry, looked up, the tested form may be a part): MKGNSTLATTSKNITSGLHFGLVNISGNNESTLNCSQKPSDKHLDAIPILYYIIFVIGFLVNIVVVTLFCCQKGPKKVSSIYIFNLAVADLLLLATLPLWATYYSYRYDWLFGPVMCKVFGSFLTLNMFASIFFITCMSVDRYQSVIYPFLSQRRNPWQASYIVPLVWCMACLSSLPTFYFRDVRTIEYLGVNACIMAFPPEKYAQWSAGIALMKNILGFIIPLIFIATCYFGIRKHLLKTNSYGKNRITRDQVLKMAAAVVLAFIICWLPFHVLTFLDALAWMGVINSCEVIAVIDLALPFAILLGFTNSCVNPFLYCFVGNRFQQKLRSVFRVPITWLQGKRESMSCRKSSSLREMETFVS
Method in brief: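 Membranes from HEK-293 cells expressing human AT2R fused to Cb23 were incubated with 0.05 nM 125I-[Sar1, Ile8]-Angiotensin II in 100 μL buffer (50 mM Tris, 5 mM MgCl2, 1 mM EDTA, 0.1% BSA, pH 7.4) for one hour at 25° C. Ligands were tested as eight-point dose-response curves in duplicate, with C21 and Angiotensin II as references.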

[2] = target: human AT1R (Homo sapiens (Human), UniProt P30556); experiment: Counterscreen radioligand binding assay, displacement of 125I-[Sar1, Ile8]-Angiotensin II, hAT1R WT; conditions: for inhibition at 1 µM / inhibition at 10 µM: 125I-[Sar1, Ile8]-Ang II, semi-quantitative score; for inhibition at 1 µM: compound at 1 μM, read-out: % Displaced radioligand at 1 μM; for inhibition at 10 µM: compound at 10 μM, read-out: % Displaced radioligand at 10 μM; for IC50: HEK-293 cell membranes, read-out: Binding affinity On hAT1R IC50
human AT1R, sequence (P30556 whole entry): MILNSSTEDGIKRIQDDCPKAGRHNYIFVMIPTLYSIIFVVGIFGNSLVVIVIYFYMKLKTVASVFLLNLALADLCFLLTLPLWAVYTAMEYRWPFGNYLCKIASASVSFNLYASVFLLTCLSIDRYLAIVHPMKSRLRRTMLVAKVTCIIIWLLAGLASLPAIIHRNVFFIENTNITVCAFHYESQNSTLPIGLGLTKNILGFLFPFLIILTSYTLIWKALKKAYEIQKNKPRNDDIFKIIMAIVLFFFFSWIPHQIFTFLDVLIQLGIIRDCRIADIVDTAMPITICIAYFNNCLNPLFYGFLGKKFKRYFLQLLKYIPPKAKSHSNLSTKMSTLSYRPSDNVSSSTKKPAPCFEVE
Method in brief: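 Compounds displaced 0.05 nM 125I-[Sar1, Ile8]-Ang II from human AT1R in HEK-293 membranes (1 h, 25° C; Tris/MgCl2/EDTA/BSA buffer, pH 7.4). Readout was filtration and scintillation counting, with non-specific binding set by 10 μM [Sar1]-Ang II. Values are % displacement at 1 μM and […], or IC50 from eight-point four-parameter fits.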

IC50 [1]	inhibition at 1 µM [2]	inhibition at 10 µM [2]	IC50 [2]	Structure (SMILES)
8.4 µM	< 30%	< 30%		c1ccc2sc(CN3CCN(c4cc(NCC5CC5)cnc4-c4nn[nH]n4)CC3)nc2c1 [Compound A-149, 5-[4-(1,3-benzo-thiazol-2-ylmethyl)-piperazin-1-yl]-N-(cyclopropylmeth-yl)-6-(2H-tetrazol-5-yl)pyridin-3-amine]
2.67 µM	< 30%	< 30%		CC(C)Cc1ccc(-c2nn[nH]n2)c(N2CC3CN(Cc4cccnn4)CC3C2)c1 (centres unmarked) [Compound A-232, 5-[5-isobutyl-2-(2H-tetrazol-5-yl)-phenyl]-2-(pyrid-azin-3-ylmethyl)-1,3,3a,4,6,6a-hexahydropyrrolo-[3,4-c]pyrrole]
0.0807 µM	< 30%	< 30%		Cc1cnc(CN2CCN(c3cc(CC(C)C)cc(F)c3-c3nn[nH]n3)CC2)s1 [Compound A-220, 2-[[4-[3-fluoro-5-isobutyl-2-(2H-tetrazol-5-yl)phen-yl]piperazin-1-yl]-methyl]-5-methyl-thiazole]
2.78 µM	< 30%	30 to 50%	11.7 µM	CC(C)Oc1cc(N2CCN(Cc3nc4ccccc4s3)CC2)c(-c2nn[nH]n2)cc1C1CC1 [Compound A-121, 2-[[4-[4-cycloprop-yl-5-isopropoxy-2-(2H-tetrazol-5-yl)-phenyl]piperazin-1-yl]methyl]-1,3-benzothiazole]
0.0531 µM	< 30%	< 30%		CC(C)Cc1cc(F)c(-c2nn[nH]n2)c(N2CCN(Cc3cc(Cl)ccn3)CC2)c1 [Compound A-191, 1-[(4-chloro-2-pyridyl)methyl]-4-[3-fluoro-5-isobutyl-2-(2H-tetrazol-5-yl)phenyl]piperazine]
0.0386 µM	< 30%	< 30%		CC(C)Cc1cc(F)c(-c2nn[nH]n2)c(N2CCN(C(C)c3ccccn3)CC2)c1 (centres unmarked) [Compound A-214, 1-[3-fluoro-5-isobutyl-2-(2H-tetrazol-5-yl)phenyl]-4-[1-(2-pyridyl)ethyl]piperazine]
9.66 µM	< 30%	< 30%		Cc1cc(-c2nn[nH]n2)c(N2CCN(Cc3nc4ccccc4s3)CC2)cc1CC(C)C [Compound A-134, 2-[[4-[5-isobutyl-4-methyl-2-(2H-tetrazol-5-yl)phen-yl]piperazin-1-yl]-methyl]-1,3-benzo-thiazole]
0.736 µM	< 30%	30 to 50%	24.7 µM	CCNc1cc(-c2nn[nH]n2)c(N2CCN(Cc3nc4ccccc4s3)CC2)cc1CC(C)C [Compound A-140, 4-[4-(1,3-benzo-thiazol-2-ylmethyl)-piperazin-1-yl]-N-ethyl-2-isobutyl-5-(2H-tetrazol-5-yl)-aniline]
4.77 µM	< 30%	30 to 50%	14.2 µM	CC(C)Cc1ccc(-c2nn[nH]n2)c(N2CCN(Cc3nncn3C)CC2)c1 [Compound A-94, 1-[5-isobutyl-2-(2H-tetrazol-5-yl)phenyl]-4-[(4-methyl-1,2,4-triazol-3-yl)methyl]piperazine]
7.11 µM	< 30%	< 30%		c1ccc2sc(CN3CCN(c4cc(N5CCOCC5)ccc4-c4nn[nH]n4)CC3)nc2c1 [Compound A-67, 4-[3-[4-(1,3-benzo-thiazol-2-ylmethyl)-piperazin-1-yl]-4-(2H-tetrazol-5-yl)-phenyl]morpholine]
0.048 µM	< 30%	< 30%	40.1 µM	CCc1nc2ccc(N(Cc3ccccc3Cl)C(=O)c3cccs3)cc2c(=O)n1CC1CCN(c2ccccc2-c2nn[nH]n2)CC1 [Compound A-248, N-[(2-chlorophenyl)methyl]-N-[2-ethyl-4-oxo-3-[[1-[2-(2H-tetrazol-5-yl)phenyl]-4-piperidyl]methyl]quinazolin-6-yl]thiophene-2-carboxamide]
14.3 µM	< 30%	< 30%		Cn1c(CN2CCN(c3cc(C(F)(F)F)ccc3-c3nn[nH]n3)CC2)nc2ccccc21 [Compound A-17, 1-methyl-2-[[4-[2-(2H-tetrazol-5-yl)-5-(trifluoromethyl)-phenyl]piperazin-1-yl]methyl]benzimid-azole]
2.37 µM	< 30%	< 30%		CCOc1ccc(-c2nn[nH]n2)c(N2CCN(Cc3nc4ccccc4n3C)CC2)c1 [Compound A-23, 2-[[4-[5-ethoxy-2-(2H-tetrazol-5-yl)-phenyl]piperazin-1-yl]methyl]-1-meth-yl-benzimidazole]
0.65 µM	< 30%	< 30%		Cc1ccc(CN2CCN(c3cc(CC(C)C)cc(F)c3-c3nn[nH]n3)CC2)nc1 [Compound A-201, 1-[3-fluoro-5-isobutyl-2-(2H-tetrazol-5-yl)phenyl]-4-[(5-methyl-2-pyridyl)methyl]piperazine]
12.1 µM	< 30%	< 30%		CNc1cc(-c2nn[nH]n2)c(N2CCN(Cc3cccnn3)CC2)cc1CC(C)C [Compound A-170, 2-isobutyl-N-meth-yl-4-[4-(pyridazin-3-ylmethyl)piper-azin-1-yl]-5-(2H-tetrazol-5-yl)aniline]
6.79 µM	< 30%	< 30%		CC(C)Oc1cc(F)c(-c2nn[nH]n2)c(N2CCN(Cc3nc4ccccc4c(=O)[nH]3)CC2)c1 [Compound A-151, 2-[[4-[3-fluoro-5-isopropoxy-2-(2H-tetrazol-5-yl)phen-yl]piperazin-1-yl]-methyl]-3H-quin-azolin-4-one]
6.58 µM	< 30%	< 30%		CCS(=O)(=O)NC(=O)c1ccc(OC)cc1N1CCN(Cc2nc3ccccc3s2)CC1 [Compound A-37, 2-[4-(1,3-benzothiazol-2-ylmethyl)piperazin-1-yl]-N-ethylsulfonyl-4-methoxy-benzamide]
7.07 µM	< 30%	< 30%		CC(C)Cc1ccc(-c2nn[nH]n2)c(N2CCN(Cc3cc(C4CC4)on3)CC2)c1 [Compound A-102, 5-cyclopropyl-3-[[4-[5-isobutyl-2-(2H-tetrazol-5-yl)phenyl]piperazin-1-yl]methyl]isoxazole]
2.81 µM	< 30%	< 30%		CCS(=O)(=O)NC(=O)c1ccc(OC(C)C)cc1CN1CCN(c2nc3ccccc3s2)CC1 [Compound A-39, 2-[[4-(1,3-benzothiazol-2-yl)piperazin-1-yl]methyl]-N-ethylsulfonyl-4-isopropoxy-benzamide]
6.24 µM	< 30%	< 30%		CC(C)Cc1ccc(-c2nn[nH]n2)c(N2CCN(Cc3nc4ccccc4s3)CC2)n1 [Compound A-148, 2-[[4-[6-isobutyl-3-(2H-tetrazol-5-yl)-2-pyridyl]piperazin-1-yl]methyl]-1,3-benzothiazole]
7.18 µM	< 30%	< 30%	34.9 µM	CCNc1ccc(C(=O)NS(=O)(=O)CC)c(N2CCN(Cc3nc4ccccc4s3)CC2)c1 [Compound A-44, 2-[4-(1,3-benzo-thiazol-2-ylmethyl)-piperazin-1-yl]-4-(ethylamino)-N-ethylsulfonyl-benz-amide]
